The values that follow come from patent publication US10626081B2, “Farnesoid X receptor agonists and uses thereof” (Metacrine, Inc., priority 2015, dated 2020).

Assay [1] deals with T1, FXR (Homo sapiens, UniProt Q96RI1).
T1 construct: expressed in transfected cells; host or cells: CV-1 cells
T1 sequence (Q96RI1 1-486): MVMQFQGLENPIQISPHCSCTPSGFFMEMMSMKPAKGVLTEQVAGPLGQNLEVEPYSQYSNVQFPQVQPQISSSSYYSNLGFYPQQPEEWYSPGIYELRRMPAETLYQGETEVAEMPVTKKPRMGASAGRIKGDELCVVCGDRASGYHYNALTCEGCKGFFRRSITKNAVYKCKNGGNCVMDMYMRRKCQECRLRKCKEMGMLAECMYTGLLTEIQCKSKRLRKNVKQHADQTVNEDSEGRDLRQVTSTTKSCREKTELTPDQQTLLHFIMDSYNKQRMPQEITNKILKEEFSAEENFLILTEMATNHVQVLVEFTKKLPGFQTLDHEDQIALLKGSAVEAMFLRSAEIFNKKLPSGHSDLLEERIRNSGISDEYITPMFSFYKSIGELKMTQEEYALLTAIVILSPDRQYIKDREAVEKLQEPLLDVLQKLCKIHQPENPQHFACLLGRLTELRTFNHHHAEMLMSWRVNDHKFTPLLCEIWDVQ
T1 sequence (P19793 1-462 partner): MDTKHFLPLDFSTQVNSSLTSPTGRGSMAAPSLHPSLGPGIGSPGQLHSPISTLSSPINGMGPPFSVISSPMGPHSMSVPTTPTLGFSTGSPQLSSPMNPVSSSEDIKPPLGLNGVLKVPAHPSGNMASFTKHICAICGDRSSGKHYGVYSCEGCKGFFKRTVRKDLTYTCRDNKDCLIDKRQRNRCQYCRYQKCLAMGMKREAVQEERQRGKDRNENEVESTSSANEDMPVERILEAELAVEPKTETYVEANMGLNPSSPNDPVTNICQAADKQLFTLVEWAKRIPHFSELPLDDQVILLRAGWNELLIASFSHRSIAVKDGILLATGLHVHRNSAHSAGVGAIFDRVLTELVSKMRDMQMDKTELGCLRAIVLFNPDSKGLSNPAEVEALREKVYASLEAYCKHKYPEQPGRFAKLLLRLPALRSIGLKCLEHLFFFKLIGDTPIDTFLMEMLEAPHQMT
Nature of the assay: In Vitro FXR Assay (PGL3): luciferase reporter in transfected CV-1 cells. The note with it: CV-1 cells transfected with hFXR, hRXR, PGL3-ECRE*6-luc; 18 h incubation; luminescence. Format: cell-based. On the procedure: Example B-1: In Vitro FXR Assay (PGL3)
CV-1 cells were seeded at a density of 2,000,000 cells in a T175 flask with DMEM+10% charcoal double-stripped FBS and incubated at 37° C. in a 5% CO2 for 18 h (O/N).
After 18 h of incubation, the medium in the T175 flask was changed with fresh DMEM+10% charcoal super-stripped serum.
To prepare the transfection reaction mixture, the transfection reagent (X-tremeGENE HP from Roche, Cat #06 366 236 001) was added in to a 1.5 mL microcentrifuge tube labelled “A” at a ratio of 1:3 (DNA in transfection reagent in μL). OptiMEM medium (Life Technologies, Cat #31985-062) was added accordingly to provide a total volume of 1 mL. The transfection reaction mixture was then briefly vortexed and incubated at room temperature for 5 minutes.
In a separate 1.5 mL microcentrifuge tube labelled “B”, 100 μL OptiMEM and plasmids XPD90Gal pCMXhFXRfl, pCMXhRXRfl+PGL3-ECRE*6-luc+CMX-YFP in the ratio 2 μg:2 μg:18 μg:3 μg were added. This microcentrifuge tube “B” was then briefly vortexed and incubated at room temperature for 5 minutes.
The total volume in tube labelled “A” was then transferred in to tube labelled “B.” The mixture was then briefly vortexed and the transfection:DNA complex was then incubated for about 15-20 minutes at room temperature.
Following incubation, the transfection reagent/DNA mixture complex was then added to cells in the T175 flask and the cells were incubated at […] (O/N) at 37° C. in 5% CO2.
In a 96 well plate, a half logarithmic serial dilution was prepared. OptiMEM was used as the diluent. Using any of one of the compounds described herein, a compound stock solution of 10 mM was prepared. An initial 1:100 dilution was made into the first well for a final concentration of 100 μM. The final concentrations in the 96-well plate was prepared by using a multichannel pipette to transfer 5 μL of the diluted compound to 384-well plate in quadruplicate.
Cells in T175 flask were trypsinized and cells were resuspended in 40 mL phenol red free DMEM+10% charcoal super-stripped FBS. Typically, one T175 flask was sufficient to seed two 384 well plates. CV-1 cells were seeded at 45 μL cell suspension/well using a multi-channel pipet or a 384 multidrop dispenser. The cells were then incubated for 18 hrs, overnight.
After removing the plates from the incubator, the medium was flicked out of plate and 384 well plate was turned upside down onto paper towel. The remaining medium was gently tapped out. 15 μL lysis buffer was then added to each well using a multichannel pipet or a 384 well multi-drop dispenser. After incubation for 10 minutes at room temperature on shaker, 30 μL Luciferase buffer was added to each well. Luminescence counts were taken immediately using the Perkin Elmer Envision.
The ability of the compounds disclosed herein to […] FXR activity was quantified and the respective EC50 value was determined. Fex=fexaramine.
(In a reporter assay the amount or activity of a reporter protein is the signal.)

Assay [2] deals with T1, FXR. Put plainly: In Vitro FXR Assay (TK): TK-ECRE-luc reporter in transfected CV-1 cells. The settings on record: CV-1 cells transfected with hFXR, hRXR, 18 h incubation, luminescence. The class given is cell-based. The procedure, abridged:
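Luciferase read-out from lysed CV-1 cells exposed 18 h to DMSO-diluted compounds. Cells had been transfected overnight with expression plasmids for hFXR and hRXR plus TK-ECRE-luc reporter and pCMX-YFP, grown in charcoal-stripped serum at 37 °C, 5% CO2.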

As a reminder, the EC50 is the concentration that produces a half-maximal response. A low value points to greater potency. Turning to `COC(=O)/C=C/c1cccc(N(Cc2ccc(-c3ccc(N(C)C)cc3)cc2)C(=O)C(C)(C)C)c1` [compound 1, (E)-Methyl 3-(3-(N-((4′-(dimethylamino)-[1,1′-biphenyl]-4-yl)methyl)pivalamido)phenyl)acrylate], in assay [1], the “Cmpd/Fex (ratio of the EC50 for the test compound relative to the EC50 of the Fexaramine control)” value was “+++ (‘+++’ means Cmpd/Fex < 10)”. The same compound showed an EC50 in assay [2] of 1000 to 10000 nM.
On the same counts, the results for `CCCC(=O)N(Cc1ccc(-c2ccc(N(C)C)cc2)cc1)c1cccc(/C=C/C(=O)OC)c1` [compound 2, (E)-Methyl 3-(3-(N-((4′-(dimethylamino)-[1,1′-biphenyl]-4-yl)methyl)butyramido)phenyl)acrylate] are “++ (‘++’ means Cmpd/Fex > 10 & < 100)” and 1000 to 10000 nM.
For `CCOC(=O)N(Cc1ccc(-c2ccc(N(C)C)cc2)cc1)c1cccc(/C=C/C(=O)OC)c1` [compound 3, (E)-Methyl 3-(3-(((4′-(dimethylamino)-[1,1′-biphenyl]-4-yl)methyl)(ethoxycarbonyl)amino)phenyl)acrylate], the “Cmpd/Fex (ratio of the EC50 for the test compound relative to the EC50 of the Fexaramine control)” value in assay [1] is on record as “++ (‘++’ means Cmpd/Fex > 10 & < 100)”. This compound came in with an EC50 in assay [2] of 1000 to 10000 nM.
For the compound `COC(=O)/C=C/c1cccc(N(Cc2ccc(-c3ccc(N(C)C)cc3)cc2)C(=O)c2ccc(C#N)cc2)c1` [compound 4, (E)-Methyl 3-(3-(4-cyano-N-((4′-(dimethylamino)-[1,1′-biphenyl]-4-yl)methyl)benzamido)phenyl)acrylate], in assay [1], the “Cmpd/Fex (ratio of the EC50 for the test compound relative to the EC50 of the Fexaramine control)” value is “+++ (‘+++’ means Cmpd/Fex < 10)”. Moreover, the EC50 in assay [2] fell in the range of 1000 to 10000 nM.
On the same counts, the results for `COC(=O)/C=C/c1cccc(N(Cc2ccc(-c3ccc(N(C)C)cc3)cc2)C(=O)C2CCOCC2)c1` [compound 5, (E)-Methyl 3-(3-(N-((4′-(dimethylamino)-[1,1′-biphenyl]-4-yl)methyl)tetrahydro-2H-pyran-4-carboxamido)phenyl)acrylate] are “+++ (‘+++’ means Cmpd/Fex < 10)” and at most 1000 nM.
On the same counts, the results for `COC(=O)/C=C/c1cccc(N(Cc2ccc(-c3ccc(N(C)C)cc3)cc2)C(=O)C2COC2)c1` [compound 6, (E)-Methyl 3-(3-(N-((4′-(dimethylamino)-[1,1′-biphenyl]-4-yl)methyl)oxetane-3-carboxamido)phenyl)acrylate] are “++ (‘++’ means Cmpd/Fex > 10 & < 100)” and 1000 to 10000 nM.
Regarding `COC(=O)/C=C/c1cccc(N(Cc2ccc(-c3ccc(N(C)C)cc3)cc2)C(=O)CC(C)(C)C)c1` [compound 7, (E)-Methyl 3-(3-(N-((4′-(dimethylamino)-[1,1′-biphenyl]-4-yl)methyl)-3,3-dimethylbutanamido)phenyl)acrylate], the “Cmpd/Fex (ratio of the EC50 for the test compound relative to the EC50 of the Fexaramine control)” value in assay [1] was “+++ (‘+++’ means Cmpd/Fex < 10)”. In assay [2], this compound gave an EC50 of at most 1000 nM.
For `COC(=O)/C=C/c1cccc(N(Cc2ccc(-c3ccc(N(C)C)cc3)cc2)C(=O)[C@H]2CC[C@@H](OC)CC2)c1` [compound 8, (E)-Methyl 3-(3-((1r,4r)-N-((4′-(dimethylamino)-[1,1′-biphenyl]-4-yl)methyl)-4-methoxycyclohexanecarboxamido)phenyl)acrylate], the “Cmpd/Fex (ratio of the EC50 for the test compound relative to the EC50 of the Fexaramine control)” value in assay [1] is “+++ (‘+++’ means Cmpd/Fex < 10)”. This compound yielded an EC50 in assay [2] of at most 1000 nM.
`COC(=O)/C=C/c1cccc(N(Cc2ccc(-c3ccc(N(C)C)cc3)cc2)C(=O)[C@H]2CC[C@H](OC)CC2)c1` [compound 9, (E)-Methyl 3-(3-((1s,4s)-N-((4′-(dimethylamino)-[1,1′-biphenyl]-4-yl)methyl)-4-methoxycyclohexanecarboxamido)phenyl)acrylate]: in assay [1], the “Cmpd/Fex (ratio of the EC50 for the test compound relative to the EC50 of the Fexaramine control)” value is given as “+++ (‘+++’ means Cmpd/Fex < 10)”. Also, the EC50 in assay [2] is at most 1000 nM.
On the same counts, the results for `COC(=O)/C=C/c1cccc(N(Cc2ccc(-c3ccc(N(C)C)cc3)cc2)C(=O)c2ccc(OC)cc2)c1` [compound 10, (E)-Methyl 3-(3-(N-((4′-(dimethylamino)-[1,1′-biphenyl]-4-yl)methyl)-4-methoxybenzamido)phenyl)acrylate] are “+++ (‘+++’ means Cmpd/Fex < 10)” and 1000 to 10000 nM.
As for `COC(=O)/C=C/c1cccc(N(Cc2ccc(-c3ccc(N(C)C)cc3)cc2)C(=O)C2CCCCCC2)c1` [compound 11, (E)-Methyl 3-(3-(N-((4′-(dimethylamino)-[1,1′-biphenyl]-4-yl)methyl)cycloheptanecarboxamido)phenyl)acrylate], the “Cmpd/Fex (ratio of the EC50 for the test compound relative to the EC50 of the Fexaramine control)” value in assay [1] was “+++ (‘+++’ means Cmpd/Fex < 10)”. Moreover, the EC50 in assay [2] is at most 1000 nM.
On the same counts, the results for `COC(=O)/C=C/c1cccc(N(Cc2ccc(-c3ccc(N(C)C)cc3)cc2)C(=O)C23CC4CC(CC(C4)C2)C3)c1` [compound 12, (E)-Methyl 3-(3-(-N-((4′-(dimethylamino)-[1,1′-biphenyl]-4-yl)methyl)adamantane-1-carboxamido)phenyl)acrylate] are “+++ (‘+++’ means Cmpd/Fex < 10)” and 1000 to 10000 nM.
On the same counts, the results for `COC(=O)/C=C/c1cccc(N(Cc2ccc(C3CCCCC3)cc2)C(=O)C2CCCCC2)c1` [compound 13, (E)-methyl 3-(3-(N-(4-cyclohexylbenzyl)cyclohexanecarboxamido)phenyl)acrylate] are “+ (‘+’ means Cmpd/Fex > 100)” and over 10000 nM.
As to `COC(=O)/C=C/c1cccc(N(Cc2ccc(N3CCN(C)CC3)cc2)C(=O)C2CCCCC2)c1` [compound 76, (E)-Methyl 3-(3-(N-(4-(4-methylpiperazin-1-yl)benzyl)cyclohexanecarboxamido)phenyl) acrylate], the “Cmpd/Fex (ratio of the EC50 for the test compound relative to the EC50 of the Fexaramine control)” value in assay [1] is recorded as “+ (‘+’ means Cmpd/Fex > 100)”.
Still for that read-out and setting: the entry for `COC(=O)/C=C/c1cccc(N(Cc2ccc(N3CCNCC3)cc2)C(=O)C2CCCCC2)c1` [compound 79, (E)-Methyl 3-(3-(N-(4-(piperazin-1-yl)benzyl)cyclohexanecarboxamido)phenyl) acrylate] is “+ (‘+’ means Cmpd/Fex > 100)”.
